Source: patent US20040115289A1, “Cosmetic or medicinal composition containing sesquiterpene lactone or the like for treating hair -growth related disorders, and preparation method” (priority 2000, published 2004)

Columns and labels:
hairs of C57/B16 mouse = assay: Tests on the C57/B16 mouse: hair growth after topical application; type: in vivo; details: section on the C57/B16 mouse; 1% solution in the same excipient as the Arnica montana extract
Protocol: Female mice aged 5 weeks, all identical, are used. The mice are […] on the back, so as to render the hairs unnoticeable.
0.2 ml of one of each product in the same solvent as for the test on the rabbits and at the same concentration is deposited on the backs of the mice.
A test is thus carried out by comparison between different mice, in contrast to the test on the rabbit, where the same animal represents its own control.
The product is deposited on the back, without using gauze, once daily for 5 days in a row. […] They become visible on the second day of treatment to reach approximately 1 mm from the third day, whereas the hairs begin to grow on the control mice only from the third week after the beginning of the treatment.
(§1) A solution comprising 1% of pure commercial parthenolide (Aldrich, ref. 38,428-3) and a solution comprising 1% of pure commercial cnicin (Extrasynthese, ref. 8725) are prepared in the same excipient as the Arnica montana extract and are subjected to the test on the rabbit.

[1] = test system: hairs in the telogenic phase; assay: Test on the rabbit: hair growth after topical application; type: in vivo; details: 1% solution in the same excipient as the Arnica montana extract
Protocol: Male rabbits aged at least 12 weeks and identical in age, in order for the hairs of these animals to be in the telogenic phase, which can be confirmed by shearing the animals, are used.
The test products are dissolved in pure ethanol in the proportion of a concentration of 25% (w/v). This solution is then diluted 1/10 with sweet almond oil. A concentration of active product of 2.5% is then obtained.
0.2 ml of these solutions are deposited on a gauze applied to the skin and a control, obtained by preparing the same solvent as that which was used to dissolve the active principles, is also deposited. The products and the control are left in contact with the skin for 15 minutes and then the gauze is removed. The treatment is carried out for 2 days at the rate of three applications per day at intervals of four hours.
The difference between the mean time taken by the hairs to grow on the treated parts and the control parts is subsequently evaluated.
as §1

## C=C1C(=O)O[C@@H]2/C=C(\CO)CC/C=C(\C)C[C@H](OC(=O)C(=C)[C@@H](O)CO)[C@@H]12 [cnicin]
Hairs of C57/B16 mouse
  growth of the hairs compared with the 2.5% Arnica extract: approximately two times worse
[1]
  growth of the hairs compared with the Arnica extract: approximately two times worse
